{"source": "patent US9995734B2", "about": "“Human T cell line assay for evaluating the immunologic identity of glatiramer acetate preparations” (Mylan Inc., priority 2013, dated 2018)", "key": {"[1]": {"system": "Donor 3 GMA T-Cell Lines", "assay": "ATP proliferation assay (CellTiter Glo), Donor 3 GMA T-cell lines, incl. reactivity to non-canonical GA peptides", "assay_type": "cell-based, human", "conditions": "for Mean, ATP proliferation assay: 10 μg/mL"}, "[2]": {"system": "Donor 3 COP T-Cell Lines", "assay": "ATP proliferation assay (CellTiter Glo), Donor 3 COP T-cell lines, incl. reactivity to non-canonical GA peptides", "assay_type": "cell-based, human", "conditions": "for Reactivity (proliferation), Mean: Day 54 of culture; for Mean, ATP proliferation assay: 10 μg/mL"}}}
{"sequence": "FFKNIVTPRTPPPSQGK [MBP]", "values": [{"measurement": "Mean, ATP proliferation assay", "setting": "[1]; T-cell line 165-B2G, Day 40", "value": 3320}, {"measurement": "Proliferation (luminescent ATP assay), Mean", "setting": "[1]; T-cell line 165-B5G, 10 μg/mL antigen, Day 55 of culturing, No Antigen Value 846", "value": 871, "unit": "RLU"}, {"measurement": "Mean, ATP proliferation assay", "setting": "[1]; T-cell line 165-B5G, Day 40", "value": 3398}, {"measurement": "Mean, ATP proliferation assay", "setting": "[1]; T-cell line 165-C4G, Day 40", "value": 3482}, {"measurement": "Proliferation (luminescent ATP assay), Mean", "setting": "[1]; T-cell line 165-C5G, 10 μg/mL antigen, autologous B-LCL", "value": 469, "unit": "RLU"}, {"measurement": "Mean, ATP proliferation assay", "setting": "[1]; T-cell line 165-C5G, Day 40", "value": 3401}, {"measurement": "Mean, ATP proliferation assay", "setting": "[1]; T-cell line 165-C8G, tested with the Donor 3 COP lines of Table 25", "value": 5279, "unit": "RLU"}, {"measurement": "Mean, ATP proliferation assay", "setting": "[1]; T-cell line 165-D8G, Day 40", "value": 6909}, {"measurement": "Proliferation (luminescent ATP assay), Mean", "setting": "[1]; T-cell line 165-E7G, 10 μg/mL antigen, autologous B-LCL, Day 55", "value": 2116, "unit": "RLU"}, {"measurement": "Mean, ATP proliferation assay", "setting": "[1]; T-cell line 165-E7G, Day 40", "value": 2989}, {"measurement": "Proliferation (luminescent ATP assay), Mean", "setting": "[1]; T-cell line 165-E9G, 1 μg/mL antigen, Day 50 of culturing, No Antigen Value 1742", "value": 1527, "unit": "RLU"}, {"measurement": "Proliferation (luminescent ATP assay), Mean", "setting": "[1]; T-cell line 165-E9G, 3 μg/mL antigen, Day 50 of culturing, No Antigen Value 1742", "value": 1428, "unit": "RLU"}, {"measurement": "Proliferation (luminescent ATP assay), Mean", "setting": "[1]; T-cell line 165-E9G, 10 μg/mL antigen, autologous B-LCL", "value": 163, "unit": "RLU"}, {"measurement": "Mean, ATP proliferation assay", "setting": "[1]; T-cell line 165-E9G, Day 40", "value": 2892}, {"measurement": "Proliferation (luminescent ATP assay), Mean", "setting": "[1]; T-cell line 165-E9G, 30 μg/mL antigen, Day 50 of culturing, No Antigen Value 1742", "value": 1208, "unit": "RLU"}, {"measurement": "Proliferation (luminescent ATP assay), Mean", "setting": "[1]; T-cell line 165-E9G, 10 μpg/mL antigen, Day 50 of culturing, No Antigen Value 1742", "value": 1247, "unit": "RLU"}, {"measurement": "Mean, ATP proliferation assay", "setting": "[1]; T-cell line 165-F2G, Day 40", "value": 2345}, {"measurement": "Proliferation (luminescent ATP assay), Mean", "setting": "[1]; T-cell line 165-F5G, 10 μg/mL antigen, autologous B-LCL", "value": 138, "unit": "RLU"}, {"measurement": "Mean, ATP proliferation assay", "setting": "[1]; T-cell line 165-F5G, Day 40", "value": 2904}, {"measurement": "Mean, ATP proliferation assay", "setting": "[1]; T-cell line 165-F8G, Day 40", "value": 3366}, {"measurement": "Proliferation (luminescent ATP assay), Mean", "setting": "[1]; T-cell line 165-F10G, 10 μg/mL antigen, autologous B-LCL", "value": 831, "unit": "RLU"}, {"measurement": "Mean, ATP proliferation assay", "setting": "[1]; T-cell line 165-F10G, Day 40", "value": 3585}, {"measurement": "Proliferation (luminescent ATP assay), Mean", "setting": "[1]; T-cell line 165-H11G, 10 μg/mL antigen, autologous B-LCL", "value": 323, "unit": "RLU"}, {"measurement": "Mean, ATP proliferation assay", "setting": "[1]; T-cell line 165-H11G, Day 40", "value": 2925}, {"measurement": "Reactivity (proliferation), Mean", "setting": "[2]; T-cell line 165-B6C, 3 μg/mL antigen, No Antigen 2358", "value": 2205, "unit": "RLU"}, {"measurement": "Reactivity (proliferation), Mean", "setting": "[2]; T-cell line 165-B6C, 10 μg/mL antigen, No Antigen 2358", "value": 2268, "unit": "RLU"}, {"measurement": "Mean, ATP proliferation assay", "setting": "[2]; T-cell line 165-B6C, Day 46, after 3 days", "value": 3216, "unit": "RLU"}, {"measurement": "Reactivity (proliferation), Mean", "setting": "[2]; T-cell line 165-B6C, 100 μg/mL antigen, No Antigen 2358", "value": 2201, "unit": "RLU"}, {"measurement": "Reactivity (proliferation), Mean", "setting": "[2]; T-cell line 165-B10C, 3 μg/mL antigen, No Antigen 2234", "value": 2176, "unit": "RLU"}, {"measurement": "Reactivity (proliferation), Mean", "setting": "[2]; T-cell line 165-B10C, 10 μg/mL antigen, No Antigen 2234", "value": 2320, "unit": "RLU"}, {"measurement": "Mean, ATP proliferation assay", "setting": "[2]; T-cell line 165-B10C, Day 46, after 3 days", "value": 3003, "unit": "RLU"}, {"measurement": "Reactivity (proliferation), Mean", "setting": "[2]; T-cell line 165-B10C, 100 μg/mL antigen, No Antigen 2234", "value": 2272, "unit": "RLU"}, {"measurement": "Mean, ATP proliferation assay", "setting": "[2]; T-cell line 165-C4C, Day 39", "value": 1631}, {"measurement": "Proliferation (luminescent ATP assay), Mean", "setting": "[2]; T-cell line 165-C7C, 10 μg/mL antigen, autologous B-LCL", "value": 278, "unit": "RLU"}, {"measurement": "Mean, ATP proliferation assay", "setting": "[2]; T-cell line 165-C7C, Day 39", "value": 1673}, {"measurement": "Mean, ATP proliferation assay", "setting": "[2]; T-cell line 165-D2C, Day 39", "value": 1927}, {"measurement": "Reactivity (proliferation), Mean", "setting": "[2]; T-cell line 165-D3C, 3 μg/mL antigen, No Antigen 8319", "value": 8037, "unit": "RLU"}, {"measurement": "Reactivity (proliferation), Mean", "setting": "[2]; T-cell line 165-D3C, 10 μg/mL antigen, No Antigen 8319", "value": 8656, "unit": "RLU"}, {"measurement": "Mean, ATP proliferation assay", "setting": "[2]; T-cell line 165-D3C, Day 46, after 3 days", "value": 15482, "unit": "RLU"}, {"measurement": "Reactivity (proliferation), Mean", "setting": "[2]; T-cell line 165-D3C, 100 μg/mL antigen, No Antigen 8319", "value": 8647, "unit": "RLU"}, {"measurement": "Reactivity (proliferation), Mean", "setting": "[2]; T-cell line 165-D11C, 3 μg/mL antigen, No Antigen 4571", "value": 4348, "unit": "RLU"}, {"measurement": "Reactivity (proliferation), Mean", "setting": "[2]; T-cell line 165-D11C, 10 μg/mL antigen, No Antigen 4571", "value": 4301, "unit": "RLU"}, {"measurement": "Mean, ATP proliferation assay", "setting": "[2]; T-cell line 165-D11C, Day 46, after 3 days", "value": 8406, "unit": "RLU"}, {"measurement": "Reactivity (proliferation), Mean", "setting": "[2]; T-cell line 165-D11C, 100 μg/mL antigen, No Antigen 4571", "value": 4020, "unit": "RLU"}, {"measurement": "Reactivity (proliferation), Mean", "setting": "[2]; T-cell line 165-E3C, 3 μg/mL antigen, No Antigen 2797", "value": 2898, "unit": "RLU"}, {"measurement": "Reactivity (proliferation), Mean", "setting": "[2]; T-cell line 165-E3C, 10 μg/mL antigen, No Antigen 2797", "value": 2658, "unit": "RLU"}, {"measurement": "Mean, ATP proliferation assay", "setting": "[2]; T-cell line 165-E3C, Day 46, after 3 days", "value": 7662, "unit": "RLU"}, {"measurement": "Reactivity (proliferation), Mean", "setting": "[2]; T-cell line 165-E3C, 100 μg/mL antigen, No Antigen 2797", "value": 2582, "unit": "RLU"}, {"measurement": "Reactivity (proliferation), Mean", "setting": "[2]; T-cell line 165-F3C, 3 μg/mL antigen, No Antigen 3150", "value": 3369, "unit": "RLU"}, {"measurement": "Reactivity (proliferation), Mean", "setting": "[2]; T-cell line 165-F3C, 10 μg/mL antigen, No Antigen 3150", "value": 3115, "unit": "RLU"}, {"measurement": "Mean, ATP proliferation assay", "setting": "[2]; T-cell line 165-F3C, Day 46, after 3 days", "value": 9849, "unit": "RLU"}, {"measurement": "Reactivity (proliferation), Mean", "setting": "[2]; T-cell line 165-F3C, 100 μg/mL antigen, No Antigen 3150", "value": 3017, "unit": "RLU"}, {"measurement": "Reactivity (proliferation), Mean", "setting": "[2]; T-cell line 165-F6C, 3 μg/mL antigen, No Antigen 2189", "value": 1960, "unit": "RLU"}, {"measurement": "Reactivity (proliferation), Mean", "setting": "[2]; T-cell line 165-F6C, 10 μg/mL antigen, No Antigen 2189", "value": 1977, "unit": "RLU"}, {"measurement": "Mean, ATP proliferation assay", "setting": "[2]; T-cell line 165-F6C, Day 46, after 3 days", "value": 2214, "unit": "RLU"}, {"measurement": "Reactivity (proliferation), Mean", "setting": "[2]; T-cell line 165-F6C, 100 μg/mL antigen, No Antigen 2189", "value": 3672, "unit": "RLU"}]}
